From the kinase profiling compilation of Christmann-Franck et al. (2016)

How the values were obtained:
Assay in all cases: radiometric filter-binding kinase assay
[1] = test system: AKT1 (human), P31749 [S473D]
BRSK2 (human) = BRSK2 (human) (UniProt Q8IWQ3)
CLK2 (human) = CLK2 (human) (UniProt P49760)
CSNK2A1 (human) = CSNK2A1 (human) (UniProt P68400)
DAPK1 (human) = DAPK1 (human) (UniProt P53355)
DYRK1A (human) = DYRK1A (human) (UniProt Q13627)
DYRK3 (human) = DYRK3 (human) (UniProt O43781)
EPHB3 (human) = EPHB3 (human) (UniProt P54753)
IKBKB (human) = IKBKB (human) (UniProt O14920)
IKBKE (human) = IKBKE (human) (UniProt Q14164)
IRAK4 (human) = IRAK4 (human) (UniProt Q9NWZ3)
MAP2K6 (human) = MAP2K6 (human) (UniProt P52564)
MAP3K11 (human) = MAP3K11 (human) (UniProt Q16584)
MAP3K7 TAB1 (human) = MAP3K7 TAB1 (human) (UniProt Q15750+O43318)
MAPK11 (human) = MAPK11 (human) (UniProt Q15759)
MAPK12 (human) = MAPK12 (human) (UniProt P53778)
MAPK14 (human) = MAPK14 (human) (UniProt Q16539)
MAPK3 (human) = MAPK3 (human) (UniProt P27361)
MAPK8 (human) = MAPK8 (human) (UniProt P45983)
MAPKAPK3 (human) = MAPKAPK3 (human) (UniProt Q16644)
MAPKAPK5 (human) = MAPKAPK5 (human) (UniProt Q8IW41)
MKNK2 (human) = MKNK2 (human) (UniProt Q9HBH9)
NTRK1 (human) = NTRK1 (human) (UniProt P04629)
PAK4 (human) = PAK4 (human) (UniProt O96013)
PIM1 (human) = PIM1 (human) (UniProt P11309)
PIM2 (human) = PIM2 (human) (UniProt Q9P1W9)
PIM3 (human) = PIM3 (human) (UniProt Q86V86)
PLK1 (human) = PLK1 (human) (UniProt P53350)
ROCK2 (rat) = conditions: accession and sequence are those of the human protein
RPS6KA1 KD1 KD2 (human) = RPS6KA1 KD1 KD2 (human) (UniProt Q15418)
RPS6KA3 KD1 KD2 (human) = RPS6KA3 KD1 KD2 (human) (UniProt P51812)
[2] = test system: RPS6KB1 (human), P23443 [T412E]
[3] = test system: SGK1 (human), O00141 [S422D]
STK3 (human) = STK3 (human) (UniProt Q13188)
TBK1 (human) = TBK1 (human) (UniProt Q9UHD2)

MAP3K11 (human), sequence (Q16584 whole entry, looked up): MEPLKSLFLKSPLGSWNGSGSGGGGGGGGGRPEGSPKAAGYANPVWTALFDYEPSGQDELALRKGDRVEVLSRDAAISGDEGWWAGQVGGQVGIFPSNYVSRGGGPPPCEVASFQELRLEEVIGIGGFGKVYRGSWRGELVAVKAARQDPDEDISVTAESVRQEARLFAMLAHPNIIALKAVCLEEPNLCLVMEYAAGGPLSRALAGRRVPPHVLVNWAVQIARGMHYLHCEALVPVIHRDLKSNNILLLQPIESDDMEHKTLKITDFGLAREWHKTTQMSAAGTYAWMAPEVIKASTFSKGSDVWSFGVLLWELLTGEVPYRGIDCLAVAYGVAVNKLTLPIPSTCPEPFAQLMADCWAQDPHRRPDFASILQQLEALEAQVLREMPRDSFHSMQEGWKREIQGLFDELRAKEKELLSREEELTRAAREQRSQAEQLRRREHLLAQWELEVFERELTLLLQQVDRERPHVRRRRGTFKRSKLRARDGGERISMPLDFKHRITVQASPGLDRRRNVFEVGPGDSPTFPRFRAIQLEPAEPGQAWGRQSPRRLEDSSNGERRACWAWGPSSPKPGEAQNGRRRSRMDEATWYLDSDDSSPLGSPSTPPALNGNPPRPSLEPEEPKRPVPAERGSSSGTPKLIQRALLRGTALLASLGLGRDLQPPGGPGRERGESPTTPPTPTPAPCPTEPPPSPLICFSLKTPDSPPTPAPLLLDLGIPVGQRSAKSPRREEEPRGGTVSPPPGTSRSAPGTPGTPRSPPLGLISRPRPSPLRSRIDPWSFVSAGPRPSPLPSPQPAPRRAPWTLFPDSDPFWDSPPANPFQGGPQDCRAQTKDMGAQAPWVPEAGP
MAP3K7 TAB1 (human), sequence (O43318 whole entry, looked up): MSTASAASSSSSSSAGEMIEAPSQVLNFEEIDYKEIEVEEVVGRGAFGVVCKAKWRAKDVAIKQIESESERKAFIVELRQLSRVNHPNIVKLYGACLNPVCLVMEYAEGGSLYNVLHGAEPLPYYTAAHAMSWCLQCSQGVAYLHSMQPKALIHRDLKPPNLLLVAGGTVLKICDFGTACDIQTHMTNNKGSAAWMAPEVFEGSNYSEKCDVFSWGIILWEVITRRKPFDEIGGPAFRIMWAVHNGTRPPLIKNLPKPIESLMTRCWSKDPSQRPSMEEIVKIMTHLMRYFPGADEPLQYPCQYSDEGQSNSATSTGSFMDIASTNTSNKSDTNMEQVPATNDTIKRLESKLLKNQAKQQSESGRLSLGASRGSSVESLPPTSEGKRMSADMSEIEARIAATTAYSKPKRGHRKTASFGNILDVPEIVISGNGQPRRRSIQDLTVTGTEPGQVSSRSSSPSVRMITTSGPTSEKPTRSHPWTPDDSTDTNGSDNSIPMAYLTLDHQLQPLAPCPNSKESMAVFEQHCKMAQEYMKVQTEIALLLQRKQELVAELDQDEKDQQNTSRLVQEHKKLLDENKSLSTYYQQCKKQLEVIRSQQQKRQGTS
MAP3K7 TAB1 (human), sequence (Q15750 whole entry, looked up): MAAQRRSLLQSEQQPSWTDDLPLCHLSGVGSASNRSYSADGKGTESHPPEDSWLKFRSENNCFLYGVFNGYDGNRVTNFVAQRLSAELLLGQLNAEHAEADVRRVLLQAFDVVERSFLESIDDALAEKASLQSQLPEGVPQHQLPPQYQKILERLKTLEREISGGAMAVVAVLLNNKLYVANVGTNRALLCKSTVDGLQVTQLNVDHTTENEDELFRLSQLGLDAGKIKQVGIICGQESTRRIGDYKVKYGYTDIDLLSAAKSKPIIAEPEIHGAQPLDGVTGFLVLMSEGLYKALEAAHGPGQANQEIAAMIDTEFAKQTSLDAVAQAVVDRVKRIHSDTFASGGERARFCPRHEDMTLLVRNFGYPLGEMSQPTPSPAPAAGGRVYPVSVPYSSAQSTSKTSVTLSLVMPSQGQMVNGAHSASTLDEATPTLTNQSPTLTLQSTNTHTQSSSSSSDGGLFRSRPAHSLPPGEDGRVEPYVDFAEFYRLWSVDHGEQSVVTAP
RPS6KA3 KD1 KD2 (human), sequence (P51812 whole entry, looked up): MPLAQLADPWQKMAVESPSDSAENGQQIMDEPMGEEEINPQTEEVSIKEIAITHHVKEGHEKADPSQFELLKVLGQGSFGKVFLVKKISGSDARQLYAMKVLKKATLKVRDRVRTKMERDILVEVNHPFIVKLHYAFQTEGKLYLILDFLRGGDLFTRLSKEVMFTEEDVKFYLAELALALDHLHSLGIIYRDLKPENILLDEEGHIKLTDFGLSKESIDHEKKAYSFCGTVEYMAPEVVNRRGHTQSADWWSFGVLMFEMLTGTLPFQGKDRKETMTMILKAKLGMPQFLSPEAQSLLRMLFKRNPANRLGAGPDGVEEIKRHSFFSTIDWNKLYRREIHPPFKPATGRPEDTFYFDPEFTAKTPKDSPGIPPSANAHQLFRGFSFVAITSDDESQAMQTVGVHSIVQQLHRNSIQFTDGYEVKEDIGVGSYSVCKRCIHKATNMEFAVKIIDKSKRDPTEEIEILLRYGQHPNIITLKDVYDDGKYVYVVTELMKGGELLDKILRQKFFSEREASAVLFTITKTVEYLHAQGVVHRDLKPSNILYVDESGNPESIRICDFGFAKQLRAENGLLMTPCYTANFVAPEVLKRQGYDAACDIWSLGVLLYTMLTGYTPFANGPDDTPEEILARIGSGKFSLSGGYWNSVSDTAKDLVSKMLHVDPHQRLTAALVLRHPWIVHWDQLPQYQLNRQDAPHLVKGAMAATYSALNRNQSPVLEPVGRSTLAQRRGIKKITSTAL
STK3 (human), sequence (Q13188 whole entry, looked up): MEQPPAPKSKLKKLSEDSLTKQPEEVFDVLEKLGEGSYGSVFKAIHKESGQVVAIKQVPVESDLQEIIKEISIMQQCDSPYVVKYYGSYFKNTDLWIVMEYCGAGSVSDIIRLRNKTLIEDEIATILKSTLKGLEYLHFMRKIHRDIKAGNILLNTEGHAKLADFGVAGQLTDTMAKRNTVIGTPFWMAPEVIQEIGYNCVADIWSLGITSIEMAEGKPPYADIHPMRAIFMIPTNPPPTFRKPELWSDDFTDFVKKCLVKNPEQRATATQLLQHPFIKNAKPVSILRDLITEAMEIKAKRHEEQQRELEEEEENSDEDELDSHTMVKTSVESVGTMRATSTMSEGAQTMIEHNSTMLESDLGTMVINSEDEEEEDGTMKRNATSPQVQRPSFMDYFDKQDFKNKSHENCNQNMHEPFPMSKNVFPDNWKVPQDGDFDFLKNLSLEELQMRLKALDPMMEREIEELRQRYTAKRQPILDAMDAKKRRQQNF
RPS6KA1 KD1 KD2 (human), sequence (Q15418 whole entry, looked up): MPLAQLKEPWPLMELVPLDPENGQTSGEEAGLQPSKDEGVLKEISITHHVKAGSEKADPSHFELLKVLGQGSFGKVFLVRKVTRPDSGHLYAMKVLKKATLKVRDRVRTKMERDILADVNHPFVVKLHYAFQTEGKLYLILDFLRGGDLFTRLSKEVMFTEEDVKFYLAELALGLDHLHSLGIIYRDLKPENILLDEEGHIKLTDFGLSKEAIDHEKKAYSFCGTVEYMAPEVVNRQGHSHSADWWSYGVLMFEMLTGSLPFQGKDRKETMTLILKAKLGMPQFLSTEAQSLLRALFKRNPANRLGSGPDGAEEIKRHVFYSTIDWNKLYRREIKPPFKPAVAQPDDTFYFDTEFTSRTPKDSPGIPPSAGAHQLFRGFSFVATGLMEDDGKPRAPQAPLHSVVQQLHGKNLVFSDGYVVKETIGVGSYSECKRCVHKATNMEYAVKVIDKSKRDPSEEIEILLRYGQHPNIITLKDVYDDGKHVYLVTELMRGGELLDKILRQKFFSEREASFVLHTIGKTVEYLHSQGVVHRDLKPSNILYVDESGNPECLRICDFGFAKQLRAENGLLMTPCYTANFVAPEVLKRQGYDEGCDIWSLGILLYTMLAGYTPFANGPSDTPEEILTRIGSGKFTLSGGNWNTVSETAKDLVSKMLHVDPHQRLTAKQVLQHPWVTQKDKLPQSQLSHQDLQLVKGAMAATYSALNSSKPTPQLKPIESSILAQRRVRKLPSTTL
MAPK14 (human), sequence (Q16539 whole entry, looked up): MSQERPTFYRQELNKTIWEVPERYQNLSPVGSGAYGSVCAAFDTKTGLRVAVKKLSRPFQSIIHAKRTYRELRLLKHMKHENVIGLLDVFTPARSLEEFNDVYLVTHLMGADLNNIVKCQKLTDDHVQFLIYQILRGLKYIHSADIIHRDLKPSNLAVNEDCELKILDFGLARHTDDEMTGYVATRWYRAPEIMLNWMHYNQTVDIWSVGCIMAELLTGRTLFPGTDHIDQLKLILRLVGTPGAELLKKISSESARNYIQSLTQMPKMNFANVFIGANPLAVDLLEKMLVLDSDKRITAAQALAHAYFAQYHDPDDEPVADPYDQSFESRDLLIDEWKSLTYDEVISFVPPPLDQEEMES
MAPK12 (human), sequence (P53778 whole entry, looked up): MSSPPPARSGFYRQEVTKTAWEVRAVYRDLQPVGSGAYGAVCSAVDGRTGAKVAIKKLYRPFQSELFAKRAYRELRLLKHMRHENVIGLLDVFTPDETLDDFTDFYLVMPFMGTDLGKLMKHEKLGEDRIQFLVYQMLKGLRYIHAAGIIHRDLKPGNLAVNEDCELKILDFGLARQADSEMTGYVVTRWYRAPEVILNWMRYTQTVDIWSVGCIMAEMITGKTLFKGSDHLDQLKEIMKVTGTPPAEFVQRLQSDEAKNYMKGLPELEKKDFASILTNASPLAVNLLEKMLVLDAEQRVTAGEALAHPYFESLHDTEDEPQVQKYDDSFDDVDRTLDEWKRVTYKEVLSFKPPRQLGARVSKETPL

In the case of `NC(=O)c1ccc(-c2ccc(Oc3cncc4sc(-c5nn[nH]n5)cc34)cc2)cc1`, the residual activity ([1]; compound 1.0 µM) is reported as 96%, the residual activity ([1]; compound 10.0 µM) is reported as 78% and the residual activity (BRSK2 (human); compound 1.0 µM) is reported as 92%. It also gave a residual activity (BRSK2 (human); compound 10.0 µM) of 95%, a residual activity (CLK2 (human); compound 1.0 µM) of 80% and a residual activity (CLK2 (human); compound 10.0 µM) of 12%. The residual activity (CSNK2A1 (human); compound 1.0 µM) was 30%, the residual activity (CSNK2A1 (human); compound 10.0 µM) was 6% and the residual activity (DAPK1 (human); compound 1.0 µM) was 88%. For the same compound, the residual activity (DAPK1 (human); compound 10.0 µM) was 18%, the residual activity (DYRK1A (human); compound 1.0 µM) was 21% and the residual activity (DYRK1A (human); compound 10.0 µM) was 3%. For the same compound, the residual activity (DYRK3 (human); compound 1.0 µM) was 15%, the residual activity (DYRK3 (human); compound 10.0 µM) was 6% and the residual activity (EPHB3 (human); compound 1.0 µM) was 93%. It also gave a residual activity (EPHB3 (human); compound 10.0 µM) of 96%, a residual activity (IKBKB (human); compound 1.0 µM) of 94% and a residual activity (IKBKB (human); compound 10.0 µM) of 64%. It also gave a residual activity (IKBKE (human); compound 1.0 µM) of 89%, a residual activity (IKBKE (human); compound 10.0 µM) of 69% and a residual activity (IRAK4 (human); compound 1.0 µM) of 88%. For the same compound, the residual activity (IRAK4 (human); compound 10.0 µM) was 74%, the residual activity (MAP2K6 (human); compound 1.0 µM) was 104% and the residual activity (MAP2K6 (human); compound 10.0 µM) was 99%. The residual activity (MAP3K11 (human); compound 1.0 µM) was 81%, the residual activity (MAP3K11 (human); compound 10.0 µM) was 25% and the residual activity (MAP3K7 TAB1 (human); compound 1.0 µM) was 82%. The residual activity (MAP3K7 TAB1 (human); compound 10.0 µM) was 75%, the residual activity (MAPK11 (human); compound 1.0 µM) was 97% and the residual activity (MAPK11 (human); compound 10.0 µM) was 104%. It also gave a residual activity (MAPK12 (human); compound 1.0 µM) of 86%, a residual activity (MAPK12 (human); compound 10.0 µM) of 65% and a residual activity (MAPK14 (human); compound 1.0 µM) of 106%. For the same compound, the residual activity (MAPK14 (human); compound 10.0 µM) was 98%, the residual activity (MAPK3 (human); compound 1.0 µM) was 97% and the residual activity (MAPK3 (human); compound 10.0 µM) was 78%. The residual activity (MAPK8 (human); compound 1.0 µM) was 93%, the residual activity (MAPK8 (human); compound 10.0 µM) was 77% and the residual activity (MAPKAPK3 (human); compound 1.0 µM) was 82%. The residual activity (MAPKAPK3 (human); compound 10.0 µM) was 87%, the residual activity (MAPKAPK5 (human); compound 1.0 µM) was 104% and the residual activity (MAPKAPK5 (human); compound 10.0 µM) was 56%. It also gave a residual activity (MKNK2 (human); compound 1.0 µM) of 94%, a residual activity (MKNK2 (human); compound 10.0 µM) of 58% and a residual activity (NTRK1 (human); compound 1.0 µM) of 83%. It also gave a residual activity (NTRK1 (human); compound 10.0 µM) of 89%, a residual activity (PAK4 (human); compound 1.0 µM) of 89% and a residual activity (PAK4 (human); compound 10.0 µM) of 54%. For the same compound, the residual activity (PIM1 (human); compound 1.0 µM) was 70%, the residual activity (PIM1 (human); compound 10.0 µM) was 18% and the residual activity (PIM2 (human); compound 1.0 µM) was 85%. For the same compound, the residual activity (PIM2 (human); compound 10.0 µM) was 14%, the residual activity (PIM3 (human); compound 1.0 µM) was 79% and the residual activity (PIM3 (human); compound 10.0 µM) was 21%. The residual activity (PLK1 (human); compound 1.0 µM) was 90%, the residual activity (PLK1 (human); compound 10.0 µM) was 24% and the residual activity (ROCK2 (rat); compound 1.0 µM) was 73%. The residual activity (ROCK2 (rat); compound 10.0 µM) was 38%, the residual activity (RPS6KA1 KD1 KD2 (human); compound 1.0 µM) was 88% and the residual activity (RPS6KA1 KD1 KD2 (human); compound 10.0 µM) was 33%. It also gave a residual activity (RPS6KA3 KD1 KD2 (human); compound 1.0 µM) of 77%, a residual activity (RPS6KA3 KD1 KD2 (human); compound 10.0 µM) of 44% and a residual activity ([2]; compound 1.0 µM) of 96%. For the same compound, the residual activity ([2]; compound 10.0 µM) was 64%, the residual activity ([3]; compound 1.0 µM) was 100% and the residual activity ([3]; compound 10.0 µM) was 68%. It also gave a residual activity (STK3 (human); compound 1.0 µM) of 98%, a residual activity (STK3 (human); compound 10.0 µM) of 75% and a residual activity (TBK1 (human); compound 1.0 µM) of 87%. It also gave a residual activity (TBK1 (human); compound 10.0 µM) of 63%.
